From US9290535B2, “Uridine-based gadolinium complex and MRI contrast agent including the same” (Korea University Researchand Business Foundation, priority 2011, dated 2016)
Values joined by “and” are separate entries in the source; they are usually repeats but may differ in a detail not shown here. Identical values can stand only once. One block for each compound: values may come before it.

Assays:
[1] = Relaxivity measurements (r1, r2) in PBS solution; type: physicochemical; conditions: for Relaxivity r1: PBS solution, 36° C.
Protocol: The relaxation efficiency of the newly synthesized amphiphilic MRI contrast agents according to the present invention was determined by measuring longitudinal relaxivity (r1) and transverse relaxivity (r2) at 20 MHZ (0.47 T) and 60 MHz (1.41 T) in phosphate buffered saline (PBS) solution at 36° C.

[2] = Critical micelle concentration from 1/T1 versus concentration; type: physicochemical; conditions: FIG. 10
Protocol: Longitudinal and transverse relaxivities, r1 and r2, were measured at 20 MHz (0.47 T) and 60 MHz (1.41 T) at 36° C. on NMR (mq20 and mq60, Bruker, Germany) and animal MRI (Biospec 47/40, Bruker, Germany) systems. T1 and T2 relaxation times were measured with inversion recovery and spin-echo pulse sequences, respectively. The critical micelle concentration (cmc) of the complex LGd3 was determined by measuring the proton relaxation rate 1/T1 as a function of complex LGd3 concentration.

[3] = molecular target: T1, human serum albumin (HSA) (Homo sapiens, UniProt P02768); test: Interaction with human serum albumin (relaxivity with HSA, binding constant); conditions: 36° C.; for Effective interaction with HSA (R1/R1^0): 50 μM complex, HSA below 1.0 mM; for Relaxivity r1^a (with HSA): PBS solution with 0.65 mM HSA
T1 construct: purchased Sigma (Bornem, Belgium) A3782
T1 sequence (P02768 25-609): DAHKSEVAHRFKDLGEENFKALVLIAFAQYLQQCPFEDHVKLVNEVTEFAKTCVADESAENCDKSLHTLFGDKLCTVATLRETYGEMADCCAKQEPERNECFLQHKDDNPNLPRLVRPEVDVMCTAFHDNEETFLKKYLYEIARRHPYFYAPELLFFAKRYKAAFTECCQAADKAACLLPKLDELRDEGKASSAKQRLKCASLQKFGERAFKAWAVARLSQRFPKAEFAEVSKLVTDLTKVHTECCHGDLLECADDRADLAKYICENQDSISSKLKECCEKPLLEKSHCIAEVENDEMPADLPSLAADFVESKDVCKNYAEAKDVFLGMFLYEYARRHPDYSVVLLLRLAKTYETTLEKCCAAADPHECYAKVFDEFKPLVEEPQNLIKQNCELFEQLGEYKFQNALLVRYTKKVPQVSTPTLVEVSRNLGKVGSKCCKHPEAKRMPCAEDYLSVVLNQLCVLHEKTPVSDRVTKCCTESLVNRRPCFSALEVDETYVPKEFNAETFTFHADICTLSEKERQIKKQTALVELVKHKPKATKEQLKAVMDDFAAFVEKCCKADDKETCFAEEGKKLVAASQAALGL
Description: It is well known that non-covalent interaction of the contrast agent with human serum albumin (HSA) increases its circulation time in blood and slows down tubling rate, leading to greater contrast enhancement for blood vessel imaging. In this example, effective interaction between the newly synthesized contrast agents (CAs) and human serum albumin (HSA) were investigated.
Human serum albumin (HSA; Product No. A3782) was purchased from Sigma (Bornem, Belgium) and was used without further purification. HSA binding experiment was performed with 50 μM of the complexes LGd1-5 in PBS solution depending on the concentration of HSA from 0 to 4 mM at 20 MHz and 36° C.
The increment of R1/R1^0 with increasing aliphatic chain length is: LGd2>LGd3>LGd4>LGd5.
Furthermore, to know the non-covalent binding strength between HSA and the complex, a binding constant (Ka) of (3.34±0.28)×10^3 M^−1 for the complex LGd3 was determined using the theoretical equation reported in the reference (D. T. Schuhle, J. Schatz, S. Laurent, L. V. Elst, R. N. Muller, M. C. A. Stuart, J. A. Peters, Chem. Eur. J. 2009, 15, 3290). The relaxivity for the non-aggregate form of LGd3 (r1^f) was measured to be 18.5 mM^−1s^−1 (below CMC=50 μM; FIG. 10), while for adduct LGd3.HSA (r1^c), 41.0 mM^−1s^−1 at 36° C. and 20 MHz (0.47 T) in PBS solution. […] As a result, the complex LGd3 of the present invention could be retained in vivo for a longer time.

[4] = Contrast-enhanced dynamic MRI in mice (CNR in liver and blood); type: in vivo, Balb/C mice
Protocol: The whole-body pharmacokinetics of T1 contrast agents can be measured by dynamic 2D or 3D MR imaging.
5-Week-old male Balb/C mice (n=3; OrientBio, Korea) were used for contrast-enhanced dynamic MRI. MRI was performed by using a 4.7 T MRI system (BioSpec 47/40; Bruker, Germany) with a quadrature birdcage RF coil (35 mm inner diameter) for signal transmission and reception.
Bolus of the contrast agents (0.1 mmol Gd/kg) was injected via tail vein. During MRI acquisition, the animals were anesthetized using 1-1.25% of inhalational isoflurane with O2:N2O (3:7) mixture.
To quantitatively measure signal intensity in region-of-interests (ROIs) as contrast-noise ratio (CNR), a reference of water sample (1 g/l CuSO4 in 8:2 of D2O:H2O) in a cylindrical tube (5 mm diameter) was used.
Dynamic 2D T1-weighted images were acquired using a spin-echo (SE) pulse sequence with the following parameters: TE/TR=10/400 ms, number of average=4, matrix size=256×256, slice thickness=1 mm, field of view=30×30 mm^2 (in axial slice) or 50×30 mm^2 (in coronal slice), and scan time=6 min 50 s).
Dynamic 3D T1-weighted images were acquired using a fast low angle shot gradient echo (FLASH) pulse sequence with parameters of TE/TR=2.4/7.5 ms, number of average=4, flip angle=30°, field of view=30×30×20 mm^3, matrix size=256×256×128, and scan time=12 min 17 s.

[5] = Dynamic light scattering (DLS) of micelles; type: physicochemical; conditions: for DLS PDI of micelles / DLS average size of micelles: FIGS. 6 to 9; for DLS average size of micelles: pH 7.4
[6] = pH dependence of water 1H relaxivity; type: physicochemical
Protocol: The relaxivities of the non-aggregated complex LGd1 and the most aggregated complex LGd3 (FIG. 7, average diameter […]) were investigated at various pH values (3.5-11) at 60 MHz (1.41 T) and 36° C.
The pH dependence of water ^1H-NMR relaxivity r1 was obtained at 60 MHz and 36° C. The complexes LGd1 and LGd3 were dissolved in previously prepared stock solutions (StockOptions pH Screen, Hampton Research, USA) at pH 3.5-11.

[7] = Stability against transmetallation by Zn2+ (time evolution of proton relaxation rate); type: physicochemical; conditions: for Relaxivity retained after transmetallation: 2.5 mM complex with 2.5 mM ZnCl2 in PBS, after 70 h; for y0 of fit y0+A×exp(−t/C1) of proton relaxation rate during transmetallation: Zn(II) ions, PBS, 20 MHz (0.47 T), 36° C., steady state in about 70 h
Protocol: The stability of the gadolinium complex against various biologically active metal ions is very important in in vivo applications. Among them, only Zn^2+ can displace significant amounts of the Gd^3+ ion as concentration of Zn^2+ in blood is relatively high (55-125 μM/L). The stability of the complexes LGd1-4 against transmetallation by Zn^2+ was studied employing the method of others.
The time evolution of the ^1H longitudinal relaxivity (R1) of a 2.5 mM gadolinium complex with 2.5 mM ZnCl2 in PBS solution was measured. Stability of the amphiphilic complex LGd2 of the present invention was greater than that of the non-aggregated complex LGd1 (FIG. 13). After 70 h, the relaxivities were retained 30, 50, 21, and 12% for LGd1-4, respectively.

[8] = clinical liver-specific contrast agents; cited from earlier work

Relaxivity r1 ([1]; 20 MHz (0.47 T)): 30.3 mM⁻¹ s⁻¹ and 30.30 mM⁻¹ s⁻¹ | Relaxivity r1 ([1]; 60 MHz (1.41 T)): 23.4 mM⁻¹ s⁻¹ and 23.40 mM⁻¹ s⁻¹ | Relaxivity increase compared to Magnevist/Omniscan (Gd-DTPA, Gd-DTPA-BMA) ([1]; PBS, 0.47 T and 1.41 T): 6 fold | Critical micelle concentration (CMC) ([2]; 20 MHz, 36° C.): about 0.05 mM | Critical micelle concentration (CMC) [2]: 50 µM | Effective interaction with HSA (R1/R1^0) ([3]; 20 MHz): high | Relaxivity r1^a (with HSA) ([3]; 20 MHz (0.47 T)): 41.0 mM⁻¹ s⁻¹ and 41.00 mM⁻¹ s⁻¹ | Relaxivity of adduct with HSA (r1^c) ([3]; adduct LGd3.HSA, 20 MHz (0.47 T), PBS): 41.0 mM⁻¹ s⁻¹ | Relaxivity of the non-aggregate form (r1^f) ([3]; below CMC, 20 MHz (0.47 T), PBS): 18.5 mM⁻¹ s⁻¹ | Binding constant (Ka) with HSA ([3]; non-covalent binding, theoretical equation, 20 MHz, PBS): (3.34±0.28)×10^3 M^−1 | Time of bright contrast enhancement in gall bladder after injection ([4]; 0.1 mmol Gd/kg i.v., 2D MR images): 2 to 4 h | Average diameter (FIG. 7) as printed in nm ([5]; FIG. 7): 51.2 nm | DLS PDI of micelles at alkaline pH ([5]; FIG. 12, pH 10.5): 2.01 | DLS PDI of micelles [5]: 1.46 | DLS average size of micelles [5]: 51.16 nm and 51.15 nm | Relaxivity variation Δr1 between pH 6 and 7.5 ([6]; 60 MHz, 36° C.): ~2.9 | Relaxivity variation Δr1 from pH 8 to pH 11 ([6]; 60 MHz, 36° C.): ~10.3 | Relaxivity at pH 8 ([6]; pH 8, 60 MHz (1.41 T), 36° C.): about 24.5 mM^−1s^−1 | Relaxivity at pH 10.5 ([6]; pH 10.5): about 17.3 mM^−1s^−1 | Relaxivity at pH 11 ([6]; pH 11, 60 MHz (1.41 T), 36° C.): 14.2 mM^−1s^−1 | Relaxivity retained after transmetallation [7]: 21% | y0 of fit y0+A×exp(−t/C1) of proton relaxation rate during transmetallation [7]: 0.21
SMILES: CCCCCCCCCC(=O)O[C@@H]1[C@H](OC(=O)CCCCCCCCC)[C@@H](CN(CCN(CC(=O)[O-])CC(=O)[O-])CCN(CC(=O)[O-])CC(=O)[O-])O[C@H]1n1ccc(=O)[nH]c1=O.[Gd+3] [LGd3]
Duration of hyperintense CNR in liver (delayed hepatobiliary phase) ([4]; 0.1 mmol Gd/kg i.v.): at least 11 h | Peak and plateau enhancement in liver parenchyma ([4]; 0.1 mmol Gd/kg i.v., CNR in liver from 1.67 to 4.0): about 240% | Liver parenchyma enhancement versus same dose of Gd-DTPA-BMA ([4]; 0.1 mmol Gd/kg, 3D dynamic images): more intense and prolonged enhancement | CNR in liver at 11 h above pre-value ([4]; 0.1 mmol Gd/kg, 11 h after injection): about 60% | T1-contrasted enhancement in liver parenchyma, caudal vena cava and kidney ([4]; 30 min after injection, 0.1 mmol Gd/kg): markedly seen | SI in liver compared with pre-injection value ([4]; 9 h after injection): still relatively high | Duration of plateau-like constant CNR in liver ([4]; after maximum at about 2 h post-injection): about 2 h | Peak CNR in liver ([4]; i.v. injection, 4.7 T): 4.0

Relaxivity r1 ([1]; 20 MHz (0.47 T)): 20.10 mM⁻¹ s⁻¹ | Relaxivity r1 ([1]; 60 MHz (1.41 T)): 17.20 mM⁻¹ s⁻¹ | Relaxivity r1^a (with HSA) ([3]; 20 MHz (0.47 T)): 26.40 mM⁻¹ s⁻¹ | DLS PDI of micelles [5]: 1.14 | DLS average size of micelles [5]: 24.74 nm
SMILES: CCCCCCCCCCCCCC(=O)O[C@@H]1[C@H](OC(=O)CCCCCCCCCCCCC)[C@@H](CN(CCN(CC(=O)[O-])CC(=O)[O-])CCN(CC(=O)[O-])CC(=O)[O-])O[C@H]1n1ccc(=O)[nH]c1=O.[Gd+3] [LGd5]

Relaxivity r1 ([1]; 20 MHz (0.47 T)): 27.10 mM⁻¹ s⁻¹ | Relaxivity r1 ([1]; 60 MHz (1.41 T)): 16.50 mM⁻¹ s⁻¹ | Relaxivity r1^a (with HSA) ([3]; 20 MHz (0.47 T)): 38.50 mM⁻¹ s⁻¹ | DLS PDI of micelles [5]: 1.12 | DLS average size of micelles [5]: 50.16 nm | Relaxivity retained after transmetallation [7]: 12% | y0 of fit y0+A×exp(−t/C1) of proton relaxation rate during transmetallation [7]: 0.12
SMILES: CCCCCCCCCCCC(=O)O[C@@H]1[C@H](OC(=O)CCCCCCCCCCC)[C@@H](CN(CCN(CC(=O)[O-])CC(=O)[O-])CCN(CC(=O)[O-])CC(=O)[O-])O[C@H]1n1ccc(=O)[nH]c1=O.[Gd+3] [LGd4]

Relaxivity r1 ([1]; 20 MHz (0.47 T)): 14.70 mM⁻¹ s⁻¹ | Relaxivity r1 ([1]; 60 MHz (1.41 T)): 12.40 mM⁻¹ s⁻¹ | Effective interaction with HSA (R1/R1^0) ([3]; 20 MHz): high | Relaxivity r1^a (with HSA) ([3]; 20 MHz (0.47 T)): 31.90 mM⁻¹ s⁻¹ | DLS PDI of micelles [5]: 0.986 | DLS average size of micelles [5]: 6.78 nm | Relaxivity retained after transmetallation [7]: 50% | y0 of fit y0+A×exp(−t/C1) of proton relaxation rate during transmetallation [7]: 0.50
SMILES: CCCCCCCC(=O)O[C@@H]1[C@H](OC(=O)CCCCCCC)[C@@H](CN(CCN(CC(=O)[O-])CC(=O)[O-])CCN(CC(=O)[O-])CC(=O)[O-])O[C@H]1n1ccc(=O)[nH]c1=O.[Gd+3] [LGd2]

Continued, compound first:

SMILES: O=C([O-])CN(CCN(CC(=O)[O-])CC(COP(=O)([O-])OC1CCC(c2ccccc2)(c2ccccc2)CC1)N(CC(=O)[O-])CC(=O)[O-])CC(=O)[O-].[Gd+3].[Na+].[Na+].[Na+] (stereo not drawn) [Vasovist®, diphenylcyclohexyl phosphodiester-Gd-DTPA]
Hepatic excretion [8]: 8% | Renal excretion [8]: 91%

SMILES: CNC[C@H](O)[C@@H](O)[C@H](O)[C@H](O)CO.CNC[C@H](O)[C@@H](O)[C@H](O)[C@H](O)CO.O=C([O-])CN(CCN(CC(=O)[O-])CC(=O)O)CCN(CC(=O)O)C(COCc1ccccc1)C(=O)[O-].[Gd+3] (stereo not drawn) [Multihance®, Gd-BOPTA]
Hepatic excretion [8]: 4% | Renal excretion [8]: 96%

SMILES: O=C([O-])CN(CCN(CCN(CC(=O)[O-])CC(=O)[O-])C[C@H]1O[C@@H](n2ccc(=O)[nH]c2=O)[C@H](O)[C@@H]1O)CC(=O)[O-].[Gd+3] [LGd1]
Relaxivity r1 ([1]; 20 MHz (0.47 T)): 5.10 mM⁻¹ s⁻¹ | Relaxivity r1 ([1]; 60 MHz (1.41 T)): 4.17 mM⁻¹ s⁻¹ | Relaxivity r1^a (with HSA) ([3]; 20 MHz (0.47 T)): 5.62 mM⁻¹ s⁻¹ | Relaxivity over the given pH range ([6]; pH 3.5-11, 60 MHz (1.41 T), 36° C.): 5.0±0.1 mM^−1s^−1 and 5.0±0.6 mM^−1s^−1 | Decrease of relaxivity at alkaline pH ([6]; pH 11, 60 MHz, 36° C.): about 10% | Relaxivity retained after transmetallation [7]: 30% | y0 of fit y0+A×exp(−t/C1) of proton relaxation rate during transmetallation [7]: 0.30

SMILES: CCOc1ccc(CC(CN(CCN(CC(=O)[O-])CC(=O)[O-])CC(=O)[O-])N(CC(=O)[O-])CC(=O)[O-])cc1.[Gd+3].[Na+].[Na+] (stereo not drawn) [Primovist®, Gd-EOB-DTPA]
Hepatic excretion [8]: 50% | Renal excretion [8]: 50%
